Literature values in patent US5952306A, “Integrin receptor antagonists” (Merck & Co., Inc., priority 1997, dated 1999).

Tests used:
[1] = tested on: bone resorption
[2] = tested on: platelet aggregation and thrombus formation in mammalian blood
[3] = tested on: cell attachment-promoting effects of fibronectin and vitronectin

Echistatin
block bone resorption [1]: can effectively block bone resorption

N-amidino-piperidine-3-carboxylglycyl-L-aspartyl-L-valine
inhibit platelet aggregation and thrombus formation in mammalian blood [2]: inhibit platelet aggregation and thrombus formation

arginine-glycine-aspartic acid [Arg-Gly-Asp]
activity (duplicate or inhibit cell attachment-promoting effects) [3]: low activity
